Where a name gives a salt, the structure may show the parent alone.
Tests used:
Conditions in all cases: exposure time: 15 min to 3 h acute
Dugesia japonica [1] = test: resting fraction in blue light vs vehicle (difference in fraction x100 vs vehicle); higher = higher incidence or increase relative to vehicle control
How it was run: (§1)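 Resting fraction in the dark or under blue light is reported as a median from automated tracking of intact, fasted Dugesia japonica. Worms were held one per well of a 48-well plate in 200 μL and tested 15 min to 3 h after exposure in 0.5% DMSO or water vehicle. Each worm's value was its difference from the plate's vehicle median multiplied by 100, and worms that crawled out were excluded.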

Dugesia japonica [2] = test: speed in dark vs vehicle (% change vs vehicle); higher = higher incidence or increase relative to vehicle control
How it was run: (§2)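 Crawling speed is given as the median percent change after each worm was normalised to its plate's vehicle median, leaving out worms that crawled out. Fasted, intact Dugesia japonica were placed one per well in 200 μL in 48-well plates and tracked automatically in darkness or during blue-light periods, 15 min to 3 h after exposure in 0.5% DMSO or water vehicle. Runs used eight worms per concentration per plate in technical triplicate (n = 24).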

Dugesia japonica [3] = test: any abnormal body shape incidence (% planarians (vehicle-normalised)); higher = higher incidence or increase relative to vehicle control
How it was run: (§3)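 D. japonica planarians (fasted 5–7 days), one per well in 200 μL in sealed 48-well plates, were screened within 15 minutes–3 hours of exposure to at least 5 concentrations. Body shapes (contraction, C-shape, corkscrew, hyperkinesis) were scored manually and blind by a researcher; worms that crawled out were excluded. The value is the incidence of the given shape, or of any abnormal shape, ×100, normalised to in-plate vehicle controls, with negatives set to 0.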

Dugesia japonica [4] = test: total locomotor bursts minus vehicle (bursts difference vs vehicle); higher = higher incidence or increase relative to vehicle control
How it was run: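 Fasted Dugesia japonica planarians were placed one per well in a sealed 48-well plate with 200 μL solution and exposed to half- or quarter-log concentration series, with 0.5% DMSO or water as vehicle. Testing took place 15 min–3 h after exposure, with technical triplicates totalling n = 24. Total locomotor bursts, an unstimulated behaviour, were scored by image-based object tracking, and the plate vehicle-control median was subtracted from each planarian's value without scaling. The reported value is the median normalised response, excluding worms that crawled out.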

Dugesia japonica [5] = test: crawl-out incidence (% planarians); higher = higher incidence or increase relative to vehicle control
Dugesia japonica [6] = test: speed second 30 s blue light vs vehicle (% change vs vehicle); higher = higher incidence or increase relative to vehicle control
How it was run: as §2

Dugesia japonica [7] = test: anxiety (time in outer well region) vs vehicle (% change vs vehicle); higher = higher incidence or increase relative to vehicle control
How it was run: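 Each planarian's time in the outer portion of its well was scored, worms that crawled out were dropped, and the median normalized response is reported. Fasted 5–7 days, D. japonica worms were tested singly in 200 μL in sealed 48-well plates at at least 5 concentrations, n = 24 per concentration, within 15 minutes–3 hours. Each response was normalized by dividing by, or subtracting, the plate vehicle median and multiplying by 100.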

Dugesia japonica [8] = test: stickiness incidence (% planarians (vehicle-normalised)); higher = higher incidence or increase relative to vehicle control
How it was run: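 Fasted Dugesia japonica planarians, one per well of a sealed 48-well plate in 200 μL solution, were tested 15 min–3 h after exposure to half- or quarter-log concentration series. The vehicle was 0.5% DMSO or water. Stickiness was scored as a binary endpoint in the Stickiness assay, pooling technical triplicates (n = 24). Incidence was normalised to in-plate vehicle incidence, with negatives set to 0, and multiplied by 100. Crawled-out worms were excluded.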

Dugesia japonica [9] = test: loss of phototaxis incidence (% planarians (vehicle-normalised)); higher = higher incidence or increase relative to vehicle control
How it was run: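 Intact, fasted Dugesia japonica were tested 15 min to 3 h after exposure in 0.5% DMSO or water vehicle, one per well of a 48-well plate in 200 μL. Automated object tracking was used to score each worm for loss of phototaxis as a yes/no result. With eight worms per concentration per plate in technical triplicate (n = 24), worms that crawled out were excluded. The incidence rate ×100 was normalised to in-plate vehicle controls and negatives were set to 0.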

Dugesia japonica [10] = test: corkscrew incidence (% planarians (vehicle-normalised)); higher = higher incidence or increase relative to vehicle control
How it was run: as §3

Dugesia japonica [11] = test: resting fraction in dark vs vehicle (difference in fraction x100 vs vehicle); higher = higher incidence or increase relative to vehicle control
How it was run: as §1

Dugesia japonica [12] = test: contracted body shape incidence (% planarians (vehicle-normalised)); higher = higher incidence or increase relative to vehicle control
How it was run: as §3

Dugesia japonica [13] = test: speed first 30 s blue light vs vehicle (% change vs vehicle); higher = higher incidence or increase relative to vehicle control
How it was run: as §2

Dugesia japonica [14] = test: loss of heat-induced scrunching incidence (% planarians (vehicle-normalised)); higher = higher incidence or increase relative to vehicle control
How it was run: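 The incidence of worms lacking a scrunching response to a noxious heat stimulus, normalised to vehicle controls within each plate, is the value listed. It appears ×100 with negatives set to 0. Single D. japonica planarians in 200 μL per well of 48-well plates were exposed to at least 5 concentrations (n = 24 per concentration) and tested within 15 minutes–3 hours, excluding worms that crawled out.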

Dugesia japonica [15] = test: noxious heat displacement strength vs vehicle (% change vs vehicle); higher = higher incidence or increase relative to vehicle control
How it was run: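 In the scrunching assay, displacement strength under noxious heat was tracked automatically in intact, fasted Dugesia japonica and expressed as the median percent change from the plate's vehicle median. Testing took place 15 min to 3 h after exposure in 0.5% DMSO or water vehicle, with one worm per well of a 48-well plate in 200 μL. Eight worms per concentration per plate were tested in technical triplicate (n = 24), and any that crawled out were left out.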

Dugesia japonica [16] = test: hyperkinesis incidence (% planarians (vehicle-normalised)); higher = higher incidence or increase relative to vehicle control
How it was run: as §3

Dugesia japonica [17] = test: pharynx extrusion incidence (% planarians (vehicle-normalised)); higher = higher incidence or increase relative to vehicle control
How it was run: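 Intact, fasted Dugesia japonica were placed one per well in 48-well plates with 200 μL each and scored 15 min to 3 h after exposure in either water or 0.5% DMSO vehicle. Pharynx extrusion was judged manually and blind as a body-shape category. Each concentration used eight worms per plate in technical triplicate (n = 24). Incidence was normalised to vehicle controls on the same plate, negative values were set to 0, and worms that crawled out were excluded.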

Dugesia japonica [18] = test: C-shape incidence (% planarians (vehicle-normalised)); higher = higher incidence or increase relative to vehicle control
How it was run: as §3

Compound | resting fraction in blue light (Dugesia japonica [1]) | speed in dark (Dugesia japonica [2]) | any abnormal body shape incidence (Dugesia japonica [3]) | total locomotor bursts minus vehicle (Dugesia japonica [4]) | crawl-out incidence (Dugesia japonica [5]) | speed second 30 s blue light (Dugesia japonica [6]) | anxiety (Dugesia japonica [7]) | stickiness incidence (Dugesia japonica [8]) | loss of phototaxis incidence (Dugesia japonica [9]) | corkscrew incidence (Dugesia japonica [10]) | resting fraction in dark (Dugesia japonica [11]) | contracted body shape incidence (Dugesia japonica [12]) | speed first 30 s blue light (Dugesia japonica [13]) | loss of heat-induced scrunching incidence (Dugesia japonica [14]) | noxious heat displacement strength (Dugesia japonica [15]) | hyperkinesis incidence (Dugesia japonica [16]) | pharynx extrusion incidence (Dugesia japonica [17]) | C-shape incidence (Dugesia japonica [18])
CNCCC(Oc1ccc(C(F)(F)F)cc1)c1ccccc1 (stereo unspecified) [fluoxetine hydrochloride] (3.16 µM) | -1.89 | -5.68 | 0 | -7.5 | 0 | -5.1 | 8.3 | ≤ 0 | ≤ 0 | 0 | -6.73 | 0 | -11.9 | 16.7 | -9.15 | 0 | 0 | 0
CNCCC(Oc1ccc(C(F)(F)F)cc1)c1ccccc1 (stereo unspecified) [fluoxetine hydrochloride] (10 µM) | -1.17 | -41.5 | 0 | 1 | 4.17 | -39.7 | 10.3 | ≤ 0 | ≤ 0 | 0 | -0.39 | 0 | -37.3 | 8.7 | -40 | 0 | 0 | 0
CNCCC(Oc1ccc(C(F)(F)F)cc1)c1ccccc1 (stereo unspecified) [fluoxetine hydrochloride] (31.6 µM) | 6.49 | -58.6 | 0 | 9 | 0 | -66.4 | 10.3 | ≤ 0 | 16.7 | 0 | 10.3 | 0 | -70.9 | 8.33 | -49.6 | 0 | 0 | 0
CNCCC(Oc1ccc(C(F)(F)F)cc1)c1ccccc1 (stereo unspecified) [fluoxetine hydrochloride] (100 µM) | 79.5 | -65.4 | 50 | 15.5 | 0 | -89.3 | 7.58 | ≤ 0 | 37.5 | 0 | 70.7 | 0 | -90.4 | 37.5 | -80.3 | 29.2 | 0 | 33.3
O=C(CCCN1CCC(O)(c2ccc(Cl)cc2)CC1)c1ccc(F)cc1 [haloperidol] (3.16 µM) | 12.2 | -38.5 | 9.52 | 4.5 | 8.33 | -58.4 | -3.6 | ≤ 0 | 31.8 | 4.76 | 16.5 | 4.76 | -68.4 | 9.09 | -30.8 | 0 | 0 | 0
O=C(CCCN1CCC(O)(c2ccc(Cl)cc2)CC1)c1ccc(F)cc1 [haloperidol] (10 µM) | 8.2 | -47.5 | 20 | 11.5 | 16.7 | -53.4 | -0.48 | ≤ 0 | 20 | 10 | 15.2 | 5 | -57.5 | 25 | -26.4 | 10 | 0 | 0
O=C(CCCN1CCC(O)(c2ccc(Cl)cc2)CC1)c1ccc(F)cc1 [haloperidol] (31.6 µM) | 16.3 | -59.3 | 63.2 | 15.5 | 16.7 | -62.8 | -7.34 | ≤ 0 | 15 | 52.6 | 35.2 | 10.5 | -68 | 5 | -24 | 21.1 | 0 | 0
O=C(CCCN1CCC(O)(c2ccc(Cl)cc2)CC1)c1ccc(F)cc1 [haloperidol] (100 µM) | 30.8 | -66.9 | 38.1 | 25 | 4.17 | -68.8 | 1.65 | ≤ 0 | 13 | 28.6 | 48.4 | 0 | -69.3 | 34.8 | -19.3 | 19 | 0 | 0
CN(C)CCCN1c2ccccc2CCc2ccccc21 [imipramine] (1 µM) | 0.17 | -23.4 | 4.17 | 3 | 0 | -18.2 | -4.11 | ≤ 0 | ≤ 0 | 0 | 6.78 | 0 | -21.6 | ≤ 0 | -4.45 | 0 | 0 | 0
CN(C)CCCN1c2ccccc2CCc2ccccc21 [imipramine] (3.16 µM) | 6.5 | -44.7 | 0 | 11 | 0 | -43.6 | 3.55 | ≤ 0 | ≤ 0 | 0 | 12.6 | 0 | -51.6 | ≤ 0 | -7.92 | 0 | 0 | 0
CN(C)CCCN1c2ccccc2CCc2ccccc21 [imipramine] (10 µM) | 3.16 | -48.9 | 0 | 10.8 | 0 | -51.7 | 0.22 | 16.7 | 12.5 | 0 | 4.41 | 0 | -47.9 | ≤ 0 | -29.7 | 0 | 0 | 0
CN(C)CCCN1c2ccccc2CCc2ccccc21 [imipramine] (31.6 µM) | 6.1 | -64 | 45.8 | 15.2 | 0 | -64.4 | -4.58 | 34.8 | 20.8 | 0 | 6.51 | 12.5 | -68.6 | ≤ 0 | -21.9 | 33.3 | 4.17 | 0
